Experimental data taken from patent publication US20240109843A1, “BENZALDEHYDE COMPOUNDS WITH DIRECT POLYMER DESTABILIZING EFFECTS TO TREAT SICKLE CELL DISEASE” (VIRGINIA COMMONWEALTH UNIVERSITY, priority 2018, published 2024).
Values joined by “and” are separate entries in the source; they are usually repeats but may differ in a detail not shown here. Identical values can stand only once.

Experiments:
[1] = system: RBCs from donors with homozygous SCD; experiment: Sickle inhibition in SS blood suspensions under hypoxia (2.5% oxygen); assay type: cell-based; conditions: Homo sapiens, 2 mM, 4 biological replicates, read-out: % Sickling Inhibition (Hypoxia)
Procedure: All compounds (Comp 1-13) and comparator molecules (VZHE-039, PP-14, INN-310, and Voxelotor) were evaluated following established procedures. Blood samples from individual donors with homozygous SCD (obtained with informed consent) were diluted using Hemox buffer solution with the addition of glucose (10 mM) and BSA (0.2%) to adjust hematocrit of the blood suspensions to 20%, which standardizes the procedure to normalize the ratio of RBCs to drug, for assay consistency and reproducibility. Briefly, blood suspensions were incubated under room air in the presence of various concentrations of test compounds (0-2 mM) at 37° C. for 1 hour in 96-well round bottom plates. Subsequently, the suspensions were incubated with a hypoxic gas mixture (2.5% Oxygen gas/balance Nitrogen gas) at 37° C. for up to 2 hours prior to fixation with 2% glutaraldehyde solution without exposure to air. The fixated blood aliquots were evaluated by microscopic morphological analysis (image analysis on Image J software) to identify the proportion of sickled and non-sickled RBCs, and sickle inhibition calculated based on the % change from negative control (DMSO).

Hb = Hb (Homo sapiens, UniProt P69905); experiment: Hb modification (drug-adduct formation) in SS blood suspensions by cation-exchange HPLC; assay type: binding; design: Blood suspensions from subjects with homozygous SCD; from tissue; host or cells: blood suspensions (20% hematocrit) from donors with homozygous SCD; lysates of the treated red cells; conditions: 2 mM, 4 biological replicates
Sequence of Hb (P69905 2-142): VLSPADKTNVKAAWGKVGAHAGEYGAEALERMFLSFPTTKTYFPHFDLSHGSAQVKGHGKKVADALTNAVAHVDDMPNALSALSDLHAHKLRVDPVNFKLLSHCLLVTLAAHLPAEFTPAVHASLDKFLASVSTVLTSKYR
Sequence of Hb (P68871 with tags, fused parts or gaps E7V partner): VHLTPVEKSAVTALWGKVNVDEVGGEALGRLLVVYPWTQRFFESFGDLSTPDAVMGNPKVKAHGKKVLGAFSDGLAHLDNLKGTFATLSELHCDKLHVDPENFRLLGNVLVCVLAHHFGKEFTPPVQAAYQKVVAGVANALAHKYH
Outline: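 Homozygous SCD blood at 20% hematocrit in Hemox buffer with glucose and BSA was incubated with compound (0-2 mM) 1 h at 37° C in air, then up to 2 h hypoxia (2.5% O2). Lysates, with or without 50 mM sodium borohydride reduction, were analysed by weak cation-exchange HPLC at A410 nm for Hb-drug adducts.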

[2] = system: RBCs from donors with homozygous SCD; experiment: Oxygen-independent sickle inhibition in SS blood suspensions under anoxia (100% nitrogen); assay type: cell-based, human; conditions: Homo sapiens, 2 mM, 4 biological replicates, read-out: % Sickling Inhibition (Anoxia)
Outline: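 After room-air re-oxygenation for 15 min to reverse sickling, SS blood suspensions were held under 100% nitrogen for 1 h (screening) or up to 2.5 h (time course), with aliquots fixed at set intervals. Sickled versus non-sickled cells were counted by bright-field microscopy to calculate sickle inhibition.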

sickle Hb = molecular target: T1, sickle Hb (Homo sapiens, UniProt P69905); experiment: Oxygen equilibrium (P50 shift) of lysates from treated sickle blood; assay type: cell-based; conditions: 0.5, 1 and 2 mM, SS blood
T1 construct: Blood suspensions from subjects with homozygous SCD; from tissue; host or cells: blood suspensions (20% hematocrit) from donors with homozygous SCD; lysates of the treated red cells
T1 sequence (P69905 2-142 limits assumed): as the sequence (P69905 2-142) above
Procedure: Blood suspensions from subjects with homozygous SCD (resuspended in Hemox™ buffer to a final hematocrit 20%) were incubated under air in the absence or presence of the compounds (0.5 mM, 1 mM and 2 mM) at 37° C. for 1 h to ensure that binding had attained equilibrium. The suspensions were then incubated under hypoxic conditions (2.5% oxygen/97.5% nitrogen) at 37° C. for 1 h. Aliquot samples were fixed with 2% glutaraldehyde solution without exposure to air, and then subjected to microscopic morphological analysis of bright field images (at 40× magnification) of single layer cells on an Olympus BX40 microscope fitted with an Infinity Lite B camera (Olympus), and the coupled Image Capture software. The residual samples were washed in phosphate-buffer saline, and hemolyzed in hypotonic lysis buffer for subsequent Hb-modification and oxygen equilibrium analyses.
For oxygen equilibrium studies, approximately 100 μL aliquot samples from the above clarified lysate were added to 4 mL of 0.1M potassium phosphate buffer, pH 7.0, in cuvettes and subjected to hemoximetry analysis using a Hemox™ Analyzer (TCS Scientific Corp.) to assess P50 shifts. Degree of P50 shift (ΔP50) was expressed as percentage fractions of control DMSO-treated samples.

intracellular Hb = molecular target: T2, intracellular Hb (Mus musculus, UniProt P01942); experiment: In vivo modification of intracellular Hb in wild-type mice; design: species or system C57BL/6 mice
T2 construct: from tissue; host or cells: blood (red cell lysates) of dosed C57BL/6 mice
T2 sequence (P01942 2-142 limits assumed): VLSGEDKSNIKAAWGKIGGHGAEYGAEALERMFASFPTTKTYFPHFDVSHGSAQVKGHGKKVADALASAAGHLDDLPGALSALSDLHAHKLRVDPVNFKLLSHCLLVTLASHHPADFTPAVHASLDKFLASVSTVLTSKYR
T2 sequence (P02088 2-147 partner limits assumed): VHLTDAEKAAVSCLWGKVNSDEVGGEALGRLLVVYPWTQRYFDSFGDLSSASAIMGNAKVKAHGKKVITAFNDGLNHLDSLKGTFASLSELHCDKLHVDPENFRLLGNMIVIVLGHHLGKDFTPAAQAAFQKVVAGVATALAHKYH
Outline: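 C57BL/6 mice got a single 150 mg/kg dose, i.p. in 30% PEG300, or i.p. and oral in an alternative excipient. Blood was taken before dosing and at 1, 3 and 6 h (or 1, 3 or 5 h), then lysed. Lysates were analysed by cation-exchange HPLC for Hb adducts and by oxygen equilibrium for the p50 shift.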

[3] = Single-dose oral pharmacokinetics in rats; assay type: in vivo, Sprague Dawley rats; conditions: oral administration, data not shown
Procedure: Single doses of each compound were administered as oral suspensions by gavage in 0.5% carboxy methylcellulose at 100 mg/kg. Whole blood levels were collected for at least 72 hours after dose administration. Bioanalyses were performed with liquid chromatography-tandem mass spectrometry […].
Single-dose pharmacokinetics (PK) in male Sprague Dawley (SD) rats (n=4) were assessed for each compound, and the maximum or peak whole blood concentration and area under the curve are shown in Table 5.

COC(=O)c1ccc(COc2cccc(O)c2C=O)cn1 [PP14, Methyl 5-((2-formyl-3-hydroxyphenoxy)methyl)picolinate]
inhibition at 2000 µM [1]: 83.1 ± 6.9% | Hb Modification (%) (Hb): 85.3 ± 11.3% | inhibition at 2000 µM [2]: 80.5 ± 17.4% | increase of Hb affinity for oxygen in sickle blood (in words) (sickle Hb): only marginally increasing Hb affinity for oxygen | Hb modification (intracellular Hb; IP 150 mg/kg, 30% PEG300, 1 hr): 7% | Hb modification (intracellular Hb; IP 150 mg/kg, 30% PEG300, 3 hr): 13% | modified Hb (intracellular Hb; IP 150 mg/kg, 30% PEG300, 6 h, 150 mg/kg): 19.1±0.6% and 19% | Hb modification (intracellular Hb; IP 150 mg/kg, Catalent excipient, 1 hr): 21.8±1.6% | Hb modification (intracellular Hb; IP 150 mg/kg, Catalent excipient, 3 hr): 37.7±5.0% | Hb modification (intracellular Hb; IP 150 mg/kg, Catalent excipient, 5 hr): 51.1±4.3% | modified Hb (intracellular Hb; oral gavage 150 mg/kg, Catalent excipient, 1 hr): 14.5±3.7% | modified Hb (intracellular Hb; oral gavage 150 mg/kg, Catalent excipient, 3 hr): 16.3±2.2% | modified Hb (intracellular Hb; oral gavage 150 mg/kg, Catalent excipient, 5 hr): 17.1±4.4% | metabolism upon oral administration [3]: rapidly metabolizes into its carboxylic acid metabolite
